The subject of test [1] is Glomerella lagenarium (Colletotrichum lagenarium). As to the kind of experiment: Glomerella lagenarium (Colletotrichum lagenarium) / liquid culture (anthracnose). Format: cell-based. The note with it: Colletotrichum orbiculare, liquid culture (PDB), growth inhibition photometrically 3-4 days after application, compared to untreated control. The method, then: (§1) Mycelia fragments or conidia suspensions of a fungus prepared either freshly from liquid cultures of the fungus or from cryogenic storage, are directly mixed into nutrient broth. DMSO solutions of the test compound (max. 10 mg/mL) are diluted with 0.025% Tween20 by a factor of 50 and 10 μL of this solution is pipetted into a microtiter plate (96-well format). The nutrient broth containing the fungal spores/mycelia fragments is then added to give an end concentration of the tested compound. The test plates are incubated in the dark at 24° C. and 96% relative humidity. The inhibition of fungal growth is determined photometrically after 2 to 7 days, depending on the pathosystem, and percent antifungal activity relative to the untreated check is calculated. Conidia of the fungus from cryogenic storage are directly mixed into nutrient broth (PDB potato dextrose broth). After placing a (DMSO) solution of test compound into a microtiter plate (96-well format), the nutrient broth containing the fungal spores is added. The test plates are incubated at 24° C. and the inhibition of growth is measured photometrically 3-4 days after application.

The subject of test [2] is Botryotinia fuckeliana (Botrytis cinerea). Kind of test: Botryotinia fuckeliana (Botrytis cinerea) / liquid culture (gray mould). The note with it: liquid culture (Vogels broth), growth inhibition photometrically 3-4 days after application, compared to untreated control. It counts as cell-based. The method, then:
as §1, with “(Vogels” for “(PDB potato dextrose”, “determined” for “measured”

Bounds are passed on as bounds.

For orientation: inhibition of growth means the percentage by which the read-out fell short of the control. Low values mean a response near the control, high ones a response far below the control.

Consider `O=C(NCC(F)c1ccc(Cl)cc1Cl)c1c(Oc2cccc(C3CC3)c2)cnc2nccn12` (stereo not drawn) [Compound P-1.1, 6-(3-cyclopropylphenoxy)-N-[2-(2,4-dichlorophenyl)-2-fluoro-ethyl]imidazo[1,2-a]pyrimidine-5-carboxamide], for which the inhibition of growth at 20 ppm in test [1] and in test [2] was at least 80% each time.
Consider `O=C(NCC(F)c1ccc(Cl)cc1Cl)c1c(Oc2cccc(C3CC3)c2)cnc2ncnn12` (stereo not drawn) [Compound P-1.2, 6-(3-cyclopropylphenoxy)-N-[2-(2,4-dichlorophenyl)-2-fluoro-ethyl]-[1,2,4]triazolo[1,5-a]pyrimidine-7-carboxamide], for which the inhibition of growth at 20 ppm in test [1] and in test [2] was at least 80% each time.
For `O=C(NCC(F)c1ccc(Cl)cc1Cl)c1c(Oc2cccc(C3CC3)c2)cnc2ccnn12` (stereo not drawn) [Compound P-1.3, 6-(3-cyclopropylphenoxy)-N-[2-(2,4-dichlorophenyl)-2-fluoro-ethyl]pyrazolo[1,5-a]pyrimidine-7-carboxamide], the inhibition of growth at 20 ppm in test [1] and in test [2] was at least 80% throughout.
In turn, `O=C(NCCc1ccc(Cl)cc1Cl)c1c(Oc2cccc(C3CC3)c2)cnc2ncnn12` [Compound P-1.5, 6-(3-cyclopropylphenoxy)-N-[2-(2,4-dichlorophenyl)ethyl]-[1,2,4]triazolo[1,5-a]pyrimidine-7-carboxamide] registered an inhibition of growth at 20 ppm in test [2] of at least 80%.
Take `O=C(NCCc1ccc(Cl)cc1Cl)c1c(Oc2cccc(C3CC3)c2)cnc2nccn12` [Compound P-1.6, 6-(3-cyclopropylphenoxy)-N-[2-(2,4-dichlorophenyl)ethyl]imidazo[1,2-a]pyrimidine-5-carboxamide]: the inhibition of growth at 20 ppm in test [1] was at least 80%.
For `Cc1cn2c(C(=O)NCC(F)c3ccc(Cl)cc3Cl)c(Oc3cccc(C4CC4)c3)cnc2n1` (stereo not drawn) [Compound P-1.7, 6-(3-cyclopropylphenoxy)-N-[2-(2,4-dichlorophenyl)-2-fluoro-ethyl]-2-methyl-imidazo[1,2-a]pyrimidine-5-carboxamide], the inhibition of growth at 20 ppm in test [1] and in test [2] was at least 80% each time.
On to `O=C(NCC(F)c1ccc(Cl)cc1Cl)c1c(Oc2cccc(C3CC3)c2)cnc2cc(F)nn12` (stereo not drawn) [Compound P-1.10, 6-(3-cyclopropylphenoxy)-N-[2-(2,4-dichlorophenyl)-2-fluoro-ethyl]-2-fluoro-pyrazolo[1,5-a]pyrimidine-7-carboxamide], for which the inhibition of growth at 20 ppm in test [1] and in test [2] was at least 80% in each case.
As for `Cc1cnn2c(C(=O)NCC(F)c3ccc(Cl)cc3Cl)c(Oc3cccc(C4CC4)c3)cnc12` (stereo not drawn) [Compound P-1.11, 6-(3-cyclopropylphenoxy)-N-[2-(2,4-dichlorophenyl)-2-fluoro-ethyl]-3-methyl-pyrazolo[1,5-a]pyrimidine-7-carboxamide], the inhibition of growth at 20 ppm in test [1] and in test [2] was at least 80% throughout.
Consider `O=C(NCC(F)c1ccc(Cl)cc1Cl)c1c(Oc2cccc(C3CC3)c2)cnc2cc(Cl)nn12` (stereo not drawn) [Compound P-1.12, 2-chloro-6-(3-cyclopropylphenoxy)-N-[2-(2,4-dichlorophenyl)-2-fluoro-ethyl]pyrazolo[1,5-a]pyrimidine-7-carboxamide], for which the inhibition of growth at 20 ppm in test [1] and in test [2] was at least 80% each time.
`Cc1nc2ncc(Oc3cccc(C4CC4)c3)c(C(=O)NCC(F)c3ccc(Cl)cc3Cl)n2n1` (stereo not drawn) [Compound P-1.14, 6-(3-cyclopropylphenoxy)-N-[2-(2,4-dichlorophenyl)-2-fluoro-ethyl]-2-methyl-[1,2,4]triazolo[1,5-a]pyrimidine-7-carboxamide]: the inhibition of growth at 20 ppm in test [1] and in test [2] was at least 80% in each case.
Consider `O=C(NCC(F)c1ccc(Cl)cc1Cl)c1c(Oc2cccc(C3CC3)c2)cnn2nccc12` (stereo not drawn) [Compound P-1.15, 5-(3-cyclopropylphenoxy)-N-[2-(2,4-dichlorophenyl)-2-fluoro-ethyl]pyrazolo[1,5-b]pyridazine-4-carboxamide], for which the inhibition of growth at 20 ppm in test [1] and in test [2] was at least 80% each time.
Molecule `COc1nn2c(C(=O)NCC(F)c3ccc(Cl)cc3Cl)c(Oc3cccc(C4CC4)c3)cnc2c1C#N` (stereo not drawn) [Compound P-1.18, 3-cyano-6-(3-cyclopropylphenoxy)-N-[2-(2,4-dichlorophenyl)-2-fluoro-ethyl]-2-methoxy-pyrazolo[1,5-a]pyrimidine-7-carboxamide] had an inhibition of growth at 20 ppm in test [2] of at least 80%.
In turn, `Cc1nn2c(C(=O)NCC(F)c3ccc(Cl)cc3Cl)c(Oc3cccc(C4CC4)c3)cnc2c1Cl` (stereo not drawn) [Compound P-1.19, 3-chloro-6-(3-cyclopropylphenoxy)-N-[2-(2,4-dichlorophenyl)-2-fluoro-ethyl]-2-methyl-pyrazolo[1,5-a]pyrimidine-7-carboxamide] returned an inhibition of growth at 20 ppm in test [2] of at least 80%.
`Cc1nn2c(C(=O)NCC(F)c3ccc(Cl)cc3Cl)c(Oc3cccc(C4CC4)c3)cnc2c1C#N` (stereo not drawn) [Compound P-1.20, 3-cyano-6-(3-cyclopropylphenoxy)-N-[2-(2,4-dichlorophenyl)-2-fluoro-ethyl]-2-methyl-pyrazolo[1,5-a]pyrimidine-7-carboxamide]: the inhibition of growth at 20 ppm in test [1] and in test [2] was at least 80% each time.

These data come from US20250368652A1, “MICROBIOCIDAL BICYCLIC HETEROCYCLIC CARBOXAMIDE DERIVATIVES” (SYNGENTA CROP PROTECTION AG, priority 2022, published 2025).
